Legend:
Format in all cases: in vivo
[1] = test system: galium (catchweed bedstraw, Galium aparine); experiment: Test C preemergence, plant response rating
[2] = test system: johnsongrass (Sorghum halepense); experiment: Test C preemergence, plant response rating
[3] = test system: barnyardgrass (Echinochloa crus-galli); experiment: Test C preemergence, plant response rating; conditions: Preemergence
[4] = test system: nightshade (eastern black nightshade, Solanum ptycanthum); experiment: Test C preemergence, plant response rating
[5] = test system: wild poinsettia (Euphorbia heterophylla); experiment: Test C preemergence, plant response rating
[6] = test system: windgrass (Apera spica-venti); experiment: Test C preemergence, plant response rating
[7] = test system: oat, wild (wild oat Avena fatua); experiment: Test C preemergence, plant response rating
[8] = test system: Canada thistle (Cirsium arvense); experiment: Test C postemergence, plant response rating; conditions: for Canada Thistle plant response rating: scale 0 to 100 (0 no effect, 100 complete control)
Method in brief: (§1)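 Greenhouse plants rated visually against untreated controls 13–15 d after treatment, scale 0 = no effect to 100 = complete control. Postemergence sprays went onto potted plants 2–18 cm tall (1–4 leaves); preemergence sprays onto soil freshly sown in loam–sand or silt loam, chemicals formulated in non-phytotoxic solvent with surfactant.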

[9] = test system: buckwheat, wild (wild buckwheat, Polygonum convolvulus); experiment: Test C postemergence, plant response rating; conditions: for Buckwheat, Wild plant response rating: scale 0 to 100 (0 no effect, 100 complete control)
Method in brief: as §1

[10] = test system: field poppy (Papaver rhoeas); experiment: Test C postemergence, plant response rating; conditions: for Field Poppy plant response rating: scale 0 to 100 (0 no effect, 100 complete control)
Method in brief: as §1

[11] = test system: field violet (Viola arvensis); experiment: Test C postemergence, plant response rating; conditions: for Field Violet plant response rating: scale 0 to 100 (0 no effect, 100 complete control)
Method in brief: as §1

[12] = test system: geranium, cutleaf (cutleaf geranium, Geranium dissectum); experiment: Test C postemergence, plant response rating; conditions: for Geranium, Cutleaf plant response rating: scale 0 to 100 (0 no effect, 100 complete control)
Method in brief: as §1

[13] = test system: johnsongrass (Sorghum halepense); experiment: Test C postemergence, plant response rating; conditions: for Johnsongrass plant response rating: scale 0 to 100 (0 no effect, 100 complete control)
Method in brief: as §1

[14] = test system: nightshade (eastern black nightshade, Solanum ptycanthum); experiment: Test C postemergence, plant response rating; conditions: for Nightshade plant response rating: scale 0 to 100 (0 no effect, 100 complete control)
Method in brief: as §1

[15] = test system: pigweed, palmer (palmer pigweed, Amaranthus palmeri); experiment: Test C postemergence, plant response rating; conditions: for Pigweed, Palmer plant response rating: scale 0 to 100 (0 no effect, 100 complete control)
Method in brief: as §1

[16] = test system: speedwell (bird's-eye speedwell, Veronica persica); experiment: Test C postemergence, plant response rating; conditions: for Speedwell plant response rating: scale 0 to 100 (0 no effect, 100 complete control)
Method in brief: as §1

[17] = test system: surinam grass (Brachiaria decumbens); experiment: Test C postemergence, plant response rating
Method in brief: as §1

[18] = test system: wild poinsettia (Euphorbia heterophylla); experiment: Test C postemergence, plant response rating; conditions: for Poinsettia, Wild plant response rating: scale 0 to 100 (0 no effect, 100 complete control)
Method in brief: as §1

[19] = test system: windgrass (Apera spica-venti); experiment: Test C postemergence, plant response rating
Method in brief: as §1

[20] = 125 g ai/ha, scale 0 to 100 (0 no effect, 100 complete control)

FC(F)(F)CCCCc1c(Br)cccc1Oc1ncc(Cl)cn1 [Compound 138]
20: Plant response rating, Barnyardgrass ([3]; 16 g ai/ha, scale 0 to 100) | Plant response rating, Surinam Grass ([17]; 16 g ai/ha, scale of 0 to 100) | Plant response rating, Surinam Grass ([17]; 31 g ai/ha, scale 0 to 100)
75: Plant response rating, Nightshade ([14]; 16 g ai/ha, scale of 0 to 100) | Plant response rating, Pigweed, Palmer ([15]; 16 g ai/ha, scale of 0 to 100) | Poinsettia, Wild plant response rating ([18]; 62 g ai/ha)
10: Plant response rating, Johnsongrass ([13]; 16 g ai/ha, scale of 0 to 100)
30: Plant response rating, Oat, Wild ([7]; 125 g ai/ha, scale of 0 to 100) | Plant response rating, Geranium, Cutleaf ([12]; 16 g ai/ha, scale of 0 to 100) | Plant response rating, Poinsettia, Wild ([18]; 16 g ai/ha, scale of 0 to 100)
0: Plant response rating, Galium ([1]; 31 g ai/ha, scale 0 to 100) | Plant response rating, Johnsongrass ([2]; 31 g ai/ha, scale 0 to 100) | Plant response rating, Poinsettia, Wild ([5]; 31 g ai/ha, scale 0 to 100) | Plant response rating, Oat, Wild ([7]; 31 g ai/ha, scale 0 to 100) | Plant response rating, Windgrass ([19]; 16 g ai/ha, scale of 0 to 100)
40: Plant response rating, Barnyardgrass ([3]; 31 g ai/ha, scale 0 to 100)
70: Plant response rating, Buckwheat, Wild ([9]; 16 g ai/ha, scale of 0 to 100)
55: Geranium, Cutleaf plant response rating ([12]; 62 g ai/ha)
35: Plant response rating, Geranium, Cutleaf ([12]; 31 g ai/ha, scale 0 to 100) | Surinam Grass plant response rating [17, 20]
60: Plant response rating, Johnsongrass ([2]; 125 g ai/ha, scale of 0 to 100) | Geranium, Cutleaf plant response rating ([12]; 125 g ai/ha) | Plant response rating, Poinsettia, Wild ([18]; 31 g ai/ha, scale 0 to 100)
5: Plant response rating, Galium ([1]; 62 g ai/ha, scale 0 to 100) | Plant response rating, Galium ([1]; 125 g ai/ha, scale of 0 to 100) | Plant response rating, Poinsettia, Wild ([5]; 62 g ai/ha, scale 0 to 100) | Plant response rating, Oat, Wild ([7]; 62 g ai/ha, scale 0 to 100)
80: Plant response rating, Barnyardgrass ([3]; 62 g ai/ha, scale 0 to 100) | Plant response rating, Nightshade ([4]; 62 g ai/ha, scale 0 to 100) | Plant response rating, Nightshade ([4]; 125 g ai/ha, scale of 0 to 100) | Plant response rating, Canada Thistle ([8]; 16 g ai/ha, scale of 0 to 100) | Plant response rating, Canada Thistle ([8]; 31 g ai/ha, scale 0 to 100) | Plant response rating, Buckwheat, Wild ([9]; 31 g ai/ha, scale 0 to 100) | Johnsongrass plant response rating ([13]; 62 g ai/ha) | Plant response rating, Nightshade ([14]; 31 g ai/ha, scale 0 to 100) | Plant response rating, Pigweed, Palmer ([15]; 31 g ai/ha, scale 0 to 100)
95: Plant response rating, Barnyardgrass ([3]; 125 g ai/ha, scale of 0 to 100) | Canada Thistle plant response rating ([8]; 125 g ai/ha) | Plant response rating, Field Violet ([11]; 31 g ai/ha, scale 0 to 100) | Plant response rating, Speedwell ([16]; 16 g ai/ha, scale of 0 to 100)
15: Plant response rating, Windgrass ([19]; 31 g ai/ha, scale 0 to 100)
98: Nightshade plant response rating ([14]; 125 g ai/ha) | Pigweed, Palmer plant response rating ([15]; 125 g ai/ha)
100: Plant response rating, Windgrass ([6]; 31 g ai/ha, scale 0 to 100) | Plant response rating, Windgrass ([6]; 62 g ai/ha, scale 0 to 100) | Plant response rating, Windgrass ([6]; 125 g ai/ha, scale of 0 to 100) | Buckwheat, Wild plant response rating ([9]; 62 g ai/ha) | Buckwheat, Wild plant response rating ([9]; 125 g ai/ha) | Plant response rating, Field Poppy ([10]; 16 g ai/ha, scale of 0 to 100) | Plant response rating, Field Poppy ([10]; 31 g ai/ha, scale 0 to 100) | Field Poppy plant response rating ([10]; 62 g ai/ha) | Field Poppy plant response rating ([10]; 125 g ai/ha) | Field Violet plant response rating ([11]; 62 g ai/ha) | Field Violet plant response rating ([11]; 125 g ai/ha) | Nightshade plant response rating ([14]; 62 g ai/ha) | Plant response rating, Speedwell ([16]; 31 g ai/ha, scale 0 to 100) | Speedwell plant response rating ([16]; 62 g ai/ha) | Speedwell plant response rating ([16]; 125 g ai/ha)
25: Plant response rating, Johnsongrass ([13]; 31 g ai/ha, scale 0 to 100)
50: Plant response rating, Johnsongrass ([2]; 62 g ai/ha, scale 0 to 100) | Plant response rating, Nightshade ([4]; 31 g ai/ha, scale 0 to 100) | Plant response rating, Poinsettia, Wild ([5]; 125 g ai/ha, scale of 0 to 100) | Windgrass plant response rating [19, 20]
90: Canada Thistle plant response rating ([8]; 62 g ai/ha) | Plant response rating, Field Violet ([11]; 16 g ai/ha, scale of 0 to 100) | Johnsongrass plant response rating ([13]; 125 g ai/ha) | Pigweed, Palmer plant response rating ([15]; 62 g ai/ha) | Poinsettia, Wild plant response rating ([18]; 125 g ai/ha)
